Values joined by “and” are separate entries in the source; they are usually repeats but may differ in a detail not shown here. Equal values may be shown once. Read-outs that look alike come from different tables or passages of the source.
Legend:
MRSA NRS 192 = test: Broth microdilution MIC, MRSA NRS 192; assay type: cell-based, S. aureus; settings: MRSA NRS 192
Method: (§1) The data is given in supporting information (Table S5). Before starting the experiment, a single colony was picked from MHA plate, inoculated in MHBII and incubated overnight at 37 °C with shaking for 18–24 h to get the starter culture. Antibiotic susceptibility testing was conducted according to the CLSI (Clinical & Laboratory Standards Institute) guidelines using the broth microdilution assay. 10 mg/mL stock solutions of test compounds were prepared in DMSO. Bacterial cultures were inoculated in MHBII and optical density (OD) was measured at 600 nm, followed by dilution to achieve ~10^6 CFU/mL. The compounds were tested from 64 to 0.5 mg/L in two-fold serial diluted fashion with 2.5 μL of each concentration added to well of a 96-well round bottom microtiter plate. Later, 97.5 μL of bacterial suspension was added to each well containing either test compound or appropriate controls. […] The MIC is defined as the lowest concentration of the compound at which there is absence of visible growth. For each test compound, MIC determinations were carried out independently three times using duplicate samples.

E. coli (NCTC 13476) = test: MIC, E. coli NCTC 13476 (with or without PMBN); assay type: cell-based; settings: E. coli NCTC 13476 + 10 µg/mL PMBN (polymyxin B nonapeptide)
[1] = tested on: 36th Passage S.aureus ATCC 29213 in the presence of Pt-1; test: microbe, parasite or virus in culture; assay type: cell-based; settings: strain resulting from 36 passages
Method: The MICs of the passaged cultures were determined every 3 days and compared to that of wild type S. aureus ATCC 29213. MIC changes were recorded for 36 passages.

[2] = tested on: MreB (B. subtilis MW10, Pxyl-gfp-mreB); test: MreB mobility (cell wall synthesis reporter); assay type: cell-based, Bacillus subtilis; settings: 3.12 µM Pt1, 25 µM Pt8; 30 and 60 min
Method: (§2) B. subtilis strains were grown in LB containing appropriate inducer concentrations as specified in Table S10. After reaching an OD600 of 0.3, cultures were split and treated with antibiotics. Samples were withdrawn after 30 and 60 min of treatment, spotted on glass slides covered with 1% agarose films, and immediately imaged.
Figure S7: Fluorescence overlays of B. subtilis MW10 (Pxyl-gfp-mreB). Cultures were treated […]
overlays of two consecutive images captured from the same cells in a 30-second interval.
Images were false-colored in blue and orange with overlapping signal appearing white. Distinct blue and orange spots indicate movement of MreB foci. Entirely white images indicate a stop of MreB moility (vancomycin control). Scale bar 2 µm.
(§3) (1 picture or pasted object on this page, not shown here)

B. subtilis 168CA [3] = test: MIC against B. subtilis 168CA (mode of action conditions); assay type: cell-based, Bacillus subtilis; settings: 16 h
Method: To establish a starting concentration for the OSC assay, MICs against parent strain 168CA were determined under conditions equivalent to those used for mode of action assays. MICs were determined according to the Clinical Laboratory Standardization Institute (CLSI) in a serial microdilution assay. […] Cultures were incubated for 16 h at 37 °C under constant agitation. MICs were used as basis for OSC determination. To this end, growth curves were recorded using optical density (OD) measurements. Culture volumes of 20 mL were grown until reaching an OD600 of 0.3. […] An untreated culture served as control. Growth was followed until cultures reached the stationary phase. A concentration achieving 50–70% growth inhibition in exponential phase was selected as optimal stressor concentration.

[4] = tested on: human red blood cells (RBC); test: Hemolysis assay in hRBCs; assay type: cell-based; settings: 4 hours at 20 °C
E. coli tolC = tested on: E. coli tolC; parameters: method as in PMID 34018686; settings: efflux-impaired mutant; cited from earlier work
λ-phage DNA = test: Single-molecule imaging of YOYO-1-labeled λ-DNA, DNA length analysis; assay type: biochemical
[5] = tested on: RpsB-GFP (B. subtilis 1049); test: Localization of RpsB-GFP (translation reporter); assay type: cell-based, Bacillus subtilis; settings: 3.12 µM Pt1, 25 µM Pt8; 30 and 60 min
Method: as §2
Figure S10: Localization of RpsB-GFP (B. subtilis 1049). Cultures were treated with 3.12 µM
as §3

Escherichia coli W3110 = test: MIC assay, E. coli; assay type: cell-based; settings: Table S1, unit not given; method: starting concentration 100 μM
HEK293T cells = assay type: cell-based, Human
Method: The control for the experiments was DMSO. HEK293T cells were cultivated in DMEM high glucose supplemented with 10% heat-inactivated fetal bovine serum, 100 U/mL of penicillin and streptomycin and maintained at a temperature of 37 °C with 5% CO2. Initially, 4000/well of cells were seeded into 96-well plates and incubated for 24 h before being exposed to compounds at concentrations ranging from 0.78, 50, and 100 µM. After 24 h of incubation, the compounds were added and serially diluted and incubated for 24 and 48 h at 37 °C 5% CO2, the cells were stained with alamar Blue, and the fluorescence excitation/ emission 540 nm/590 nm was measured using 96 well-plate reader. CC50 is defined as the lowest concentration of compound which leads to a 50% reduction in cell viability compared to untreated and DMSO control. Each experiment was repeated in triplicate.

MRSA NRS 119 = test: Broth microdilution MIC, MRSA NRS 119; assay type: cell-based, S. aureus; settings: MRSA NRS 119
Method: as §1

VRSA VRS 1 = test: Broth microdilution MIC, VRSA VRS 1; assay type: cell-based, S. aureus; settings: VRSA VRS 1
Method: as §1

MRSA NRS 186 = test: Broth microdilution MIC, MRSA NRS 186; assay type: cell-based, S. aureus; settings: MRSA NRS 186
Method: as §1

MRSA NRS 198 = test: Broth microdilution MIC, MRSA NRS 198; assay type: cell-based, S. aureus; settings: MRSA NRS 198
Method: as §1

E. coli lpxC = settings: lipid A biosynthesis-impaired mutant; cited from earlier work
B. subtilis 168CA [6] = test: Optimal stressor concentration, acute shock growth curves; assay type: cell-based, Bacillus subtilis; settings: after compound addition
Method: To establish a starting concentration for the OSC assay, MICs against parent strain 168CA were determined under conditions equivalent to those used for mode of action assays. […] MICs were used as basis for OSC determination. To this end, growth curves were recorded using optical density (OD) measurements. Culture volumes of 20 mL were grown until reaching an OD600 of 0.3. Subsequently, the parent culture was split into 2 ml aliquots, followed by addition of different MIC multiples of Pt compounds[71]. An untreated culture served as control. Growth was followed until cultures reached the stationary phase. A concentration achieving 50–70% growth inhibition in exponential phase was selected as optimal stressor concentration. […] As controls, 0.23 µM nisin, 0.53 µM µM gramicidin, 100 µM CCCP, 0.67 µM vancomycin, 1.2 µM rifampicin, and 323.12 µM chloramphenicol were included as controls for specific assays as appropriate.

MRSA NRS 194 = test: Broth microdilution MIC, MRSA NRS 194; assay type: cell-based, S. aureus; settings: MRSA NRS 194
Method: as §1

Bacillus subtilis MW168 = test: MIC assay, B. subtilis MW168; assay type: cell-based; settings: B. subtilis MW168
[7] = Stability by 1H and 195Pt NMR; assay type: physicochemical
Method: Measurements were repeated after the 24 h and 48 h of incubations at 37 °C.
Then, 10% D2O was added and 1H NMR was recorded immediately and after 24 h of incubation at 37 °C.

For `C1=C\CC/C=C\CC/1.[Cl][Pt][Cl]` [Pt1], the MIC (MRSA NRS 192) was 0.125 – 0.25 µg/mL and 0.33–0.67 µM, the MIC (E. coli (NCTC 13476)) was over 100 µM and the “cross-resistance to other antibiotics” value [1] was “no cross-resistance was observed”. For the same compound, the MreB mobility [2] was “neither Pt1 nor Pt8 affected MreB mobility”, the MIC (B. subtilis 168CA [3]) was 6.25 µM and the HC50 [4] was over 200 µM. The antibacterial activity (E. coli tolC) was “inactive”, the “DNA molecule length shift” value (λ-phage DNA; 3.125 µM Pt1, 25 µM Pt8, 100 µM CisPt, 10 min) was “shorter fragments” and the “DNA fragmentation at swapped (equimolar comparison) concentrations” value (λ-phage DNA; 25 µM Pt1, 3.125 µM Pt8) was “stronger DNA fragmentation”. For the same compound, the “localization of RpsB” value [5] was “Neither protein showed a distinct phenotype”, the “Antibacterial activity against E. coli” value (Escherichia coli W3110) was over 100 and the IC50 (HEK293T cells; 24 h) was 74.1 ± 4.1 µM. The IC50 (HEK293T cells; 48 h) was 65.3 ± 2.7 µM, the MIC (MRSA NRS 119) was 0.125 – 0.25 µg/mL and 0.33–0.67 µM and the MIC (VRSA VRS 1) was 0.67 to 1.34 µM. For the same compound, the MIC (MRSA NRS 186) was 0.125 – 0.25 µg/mL and 0.33–0.67 µM, the MIC (MRSA NRS 198) was 0.25 µg/mL and 0.67 µM and the antibacterial activity (E. coli lpxC) was “inactive”. For the same compound, the “delay until the onset of growth inhibition” value (B. subtilis 168CA [6]) was ~ 30 min, the MIC (MRSA NRS 194) was 0.125 – 0.25 µg/mL and 0.33–0.67 µM and the MIC (Bacillus subtilis MW168) was 6.25 µM. The “time compound remains intact in aqueous environment (1H-NMR)” value ([7]; DMSO-d6 with 10% D2O, 37 °C) was “at least 24 h” and the “time compound remains intact (NMR)” value ([7]; approximately 7 mM in DMSO-d6, 37 °C, 1H and 195Pt NMR) was “at least 48 h”.
